Tested on: A375 multi-cell spheroids with HUVEC/MSC, viability
Assay: Anticancer human tumor A375 cell line growth inhibition [GQUAD];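 further: spheroids exposed to compounds for seven days before readout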
Conditions: for IC50: curve of first compound; for viability, T/C: stronger effect = lower value; active means viability on the fitted dose curve at most 10% of control; inactive means the rest
In short: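 Multi-cell-type spheroids of tumor cells with HUVEC and mesenchymal stem cells, treated with drug combinations. Concentrations descend in half-log steps from near clinical Cmax, or from 10 microM where Cmax is unknown; viability read-out.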

[1] = second compound 0.0316 µM, first compound 0.0316 µM
[2] = second compound 0.0316 µM, first compound 0.1 µM
[3] = second compound 0.0316 µM, first compound 0.316 µM
[4] = second compound 0.0316 µM, first compound 1 µM
[5] = second compound 0.0316 µM, first compound 3.16 µM
[6] = second compound 0.0316 µM, first compound 10 µM
[7] = second compound 0.1 µM, first compound 0.0316 µM
[8] = second compound 0.1 µM, first compound 0.1 µM
[9] = second compound 0.1 µM, first compound 0.316 µM
[10] = second compound 0.1 µM, first compound 1 µM
[11] = second compound 0.1 µM, first compound 3.16 µM
[12] = second compound 0.1 µM, first compound 10 µM
[13] = second compound 0.316 µM, first compound 0.0316 µM
[14] = second compound 0.316 µM, first compound 0.1 µM
[15] = second compound 0.316 µM, first compound 0.316 µM
[16] = second compound 0.316 µM, first compound 1 µM
[17] = second compound 0.316 µM, first compound 3.16 µM
[18] = second compound 0.316 µM, first compound 10 µM
[19] = second compound 1 µM, first compound 0.0316 µM
[20] = second compound 1 µM, first compound 0.1 µM
[21] = second compound 1 µM, first compound 0.316 µM
[22] = second compound 1 µM, first compound 1 µM
[23] = second compound 1 µM, first compound 3.16 µM
[24] = second compound 1 µM, first compound 10 µM
[25] = second compound 3.16 µM, first compound 0.0316 µM
[26] = second compound 3.16 µM, first compound 0.1 µM
[27] = second compound 3.16 µM, first compound 0.316 µM
[28] = second compound 3.16 µM, first compound 1 µM
[29] = second compound 3.16 µM, first compound 3.16 µM
[30] = second compound 3.16 µM, first compound 10 µM
[31] = second compound 10 µM, first compound 0.0316 µM
[32] = second compound 10 µM, first compound 0.1 µM
[33] = second compound 10 µM, first compound 0.316 µM
[34] = second compound 10 µM, first compound 1 µM
[35] = second compound 10 µM, first compound 3.16 µM
[36] = second compound 10 µM, first compound 10 µM

C=CCn1c(=O)c2cnc(Nc3ccc(N4CCN(C)CC4)cc3)nc2n1-c1cccc(C(C)(C)O)n1 + Cc1[nH]c2ccc(F)cc2c1-c1nc2c3cccnc3c3ncccc3c2[nH]1
1040 nM: IC50 (second compound 0.0316 µM)
968 nM: IC50 (second compound 0.316 µM)
active: viability, T/C [6] 4.8% | viability, T/C [12] 6.47% | viability, T/C [18] 6.56% | viability, T/C [24] 8.03% | viability, T/C [29] 7.29% | viability, T/C [30] 5.68% | viability, T/C [36] 5.93%
72.2 nM: IC50 (second compound 3.16 µM)
1100 nM: IC50 (second compound 0.1 µM)
inactive: viability, T/C [1] 108% | viability, T/C [2] 94.2% | viability, T/C [3] 93.6% | viability, T/C [4] 51.6% | viability, T/C [5] 11.5% | viability, T/C [7] 106% | viability, T/C [8] 94.2% | viability, T/C [9] 94.2% | viability, T/C [10] 52.7% | viability, T/C [11] 15.4% | viability, T/C [13] 104% | viability, T/C [14] 103% | viability, T/C [15] 93.3% | viability, T/C [16] 48.8% | viability, T/C [17] 12.4% | viability, T/C [19] 101% | viability, T/C [20] 104% | viability, T/C [21] 80% | viability, T/C [22] 36.8% | viability, T/C [23] 12.3% | viability, T/C [25] 59.1% | viability, T/C [26] 45.1% | viability, T/C [27] 33.3% | viability, T/C [28] 19.5% | viability, T/C [31] 77.5% | viability, T/C [32] 63.9% | viability, T/C [33] 23.9% | viability, T/C [34] 20.2% | viability, T/C [35] 8.19%
149 nM: IC50 (second compound 10 µM)
703 nM: IC50 (second compound 1 µM)

COc1ncnc(C2CC2)c1-c1ncc2cnn(Cc3ccc(-c4nc(C(F)(F)F)cn4C(C)C)cc3)c2n1 + Cc1[nH]c2ccc(F)cc2c1-c1nc2c3cccnc3c3ncccc3c2[nH]1
3730 nM: IC50 (second compound 3.16 µM)
6580 nM: IC50 (second compound 10 µM)
inactive: viability, T/C [1] 102% | viability, T/C [2] 107% | viability, T/C [3] 109% | viability, T/C [4] 108% | viability, T/C [5] 107% | viability, T/C [6] 106% | viability, T/C [7] 119% | viability, T/C [8] 106% | viability, T/C [9] 93.8% | viability, T/C [10] 112% | viability, T/C [11] 107% | viability, T/C [12] 123% | viability, T/C [13] 104% | viability, T/C [14] 104% | viability, T/C [15] 108% | viability, T/C [16] 106% | viability, T/C [17] 112% | viability, T/C [18] 108% | viability, T/C [19] 104% | viability, T/C [20] 106% | viability, T/C [21] 99.9% | viability, T/C [22] 106% | viability, T/C [23] 100% | viability, T/C [24] 104% | viability, T/C [25] 72.2% | viability, T/C [26] 72.5% | viability, T/C [27] 77% | viability, T/C [28] 61% | viability, T/C [29] 54.1% | viability, T/C [30] 34.3% | viability, T/C [31] 88.9% | viability, T/C [32] 92.9% | viability, T/C [33] 87.2% | viability, T/C [34] 79.7% | viability, T/C [35] 61.3% | viability, T/C [36] 43.5%
> 10000 nM: IC50 (second compound 0.0316 µM) | IC50 (second compound 0.1 µM) | IC50 (second compound 0.316 µM) | IC50 (second compound 1 µM)

CC(C)n1c(=O)n(C)c2cnc3cc(F)c(-c4ccc(OCCCN5CCCCC5)nc4)cc3c21 + Cc1cnc(CNC(=O)c2c(=O)c3ccc(N4CCCN(C)CC4)nc3n3c2sc2ccccc23)cn1
> 10000 nM: IC50 (second compound 0.0316 µM) | IC50 (second compound 0.1 µM)
inactive: viability, T/C [1] 108% | viability, T/C [2] 90.5% | viability, T/C [3] 98.4% | viability, T/C [4] 82.2% | viability, T/C [5] 72.5% | viability, T/C [6] 58.7% | viability, T/C [7] 77.6% | viability, T/C [8] 64.2% | viability, T/C [9] 74.2% | viability, T/C [10] 63.4% | viability, T/C [11] 55.5% | viability, T/C [12] 50.7% | viability, T/C [13] 60.5% | viability, T/C [14] 53.1% | viability, T/C [15] 53% | viability, T/C [16] 49.8% | viability, T/C [17] 45.6% | viability, T/C [18] 37.6% | viability, T/C [19] 56% | viability, T/C [20] 47.4% | viability, T/C [21] 40.4% | viability, T/C [22] 45.2% | viability, T/C [23] 40.3% | viability, T/C [24] 30.5% | viability, T/C [25] 43.7% | viability, T/C [26] 41.9% | viability, T/C [27] 40% | viability, T/C [28] 36.8% | viability, T/C [29] 37.2% | viability, T/C [30] 28.4% | viability, T/C [31] 35.8% | viability, T/C [32] 39% | viability, T/C [33] 38.9% | viability, T/C [34] 34.2% | viability, T/C [35] 30.3% | viability, T/C [36] 22.8%
85.3 nM: IC50 (second compound 1 µM)
< 31.6 nM: IC50 (second compound 3.16 µM) | IC50 (second compound 10 µM)
778 nM: IC50 (second compound 0.316 µM)

Source: PubChem BioAssay AID2060485 (Molecular Pharmacology Branch, DTP, NCI, 2025)
